# Laboratory results as given in patent US20240058328A1, “MASITINIB FOR THE TREATMENT OF ALZHEIMER'S DISEASE” (AB SCIENCE, priority 2020, published 2024).
# System: patients with Alzheimer's disease
# Assay: Phase 3 study AB09004: change from baseline in ADCS-ADL score
# Format: in vivo, human
# Set-up: key to δLSM (ADCS-ADL): LSM difference in ADCS-ADL change; positive = improvement
# Conditions: for δLSM (ADCS-ADL) / ΔLSM (ADCS-ADL): 4.5 mg/kg/day; for δLSM (ADCS-ADL): week 24 from baseline; for ΔLSM (ADCS-ADL): vs placebo, week 24; for improved benefit relative to complementary subpopulation: ΔLSM (ADCS-ADL)
# Description: An international, multicenter, randomized, double-blind, placebo-controlled phase 3 study was conducted with the objective to evaluate oral masitinib at a dose of 4.5 mg/kg/day as a treatment for Alzheimer's disease.
# Eligible patients, aged at least 50 years, were diagnosed with dementia of Alzheimer's type according to Diagnostic and Statistical Manual of Mental Disorders (DSM)-IV criteria, and probable Alzheimer's disease according to NINCDS-ADRDA (National Institute of Neurological and Communicative Diseases and Stroke/Alzheimer's Disease and Related Disorders Association) criteria. […] Patients with any other cause of dementia not due to Alzheimer's disease were ineligible for the study.
# Eligible patients were treated during 24 weeks with masitinib at a dose of 4.5 mg/kg/day (mg per kilo body weight per day) or with placebo. Treatment was administered as add-on therapy in patients who had been treated for a minimum of 6 months with a stable dose of cholinesterase inhibitors (donepezil, rivastigmine or galantamine) and/or memantine, with no changes foreseen in therapy throughout the study.
# Primary analysis was based on the co-primary endpoints of: • Change from baseline in Alzheimer's Disease Cooperative Study Activities of Daily Living (ADCS-ADL) score. The ADCS-ADL assesses the competence of patients with Alzheimer's disease in basic and instrumental activities of daily living (ADLs). • Change from baseline in Alzheimer's Disease Assessment Scale-Cognitive Subscale (ADAS-Cog). The ADAS-Cog assesses cognition and memory.
# Treatment effect (masitinib versus placebo) was assessed based on absolute change from baseline to week 24 by using an analysis of covariance model (ANCOVA linear model) with the following factors: treatment, baseline value, and stratification criteria of baseline MMSE score, age, ADCS-ADL total score, and ADAS-Cog total score.
# For ADCS-ADL, the global score (i.e., the sum of 23 items rated by the caregiver) was used with a range from 0 to 78, wherein 78 implies full functioning with no impairment. Thus, a higher score signifies greater functional ability, while a lower score signifies greater (worse) impairment. Results are expressed as a least-squares means difference (δLSM) of absolute change in ADCS-ADL score from baseline; that is to say, the change over time in the ADCS-ADL score, or in other words the difference between the ADCS-ADL score at baseline (before treatment initiation) and the ADCS-ADL score after treatment with masitinib or with placebo. An increase in ADCS-ADL score with respect to baseline (i.e., a positive δLSM) indicates an improvement in the patient and therefore disease stability, whereas a decrease in ADCS-ADL score with respect to baseline (i.e., negative δLSM) indicates a worsening in the patient and therefore disease progression. Treatment-effect is reported as the difference between treatment-arms (ΔLSM) (calculated as δLSM[masitinib] minus δLSM[placebo]), with a positive value indicating a beneficial effect of treatment with masitinib as compared to treatment with placebo. In a scenario where both treatment-arms show worsening in activities of daily living (i.e., a negative δLSM), then a positive ΔLSM indicates a beneficial treatment effect for masitinib, i.e., the rate of decline in masitinib treated patients is slower than that of patients from the placebo-arm.
# The comparison was carried out using the following information: • δLSM: least-squares means difference of absolute change in endpoint score at week 24 from baseline, either according to ADAS-Cog assessment or to ADCS-ADL assessment. • ΔLSM: Difference between treatment-arms (treatment-effect) calculated as δLSM[masitinib] minus δLSM[placebo]. • Δsub/Δoverall: Ratio of subpopulation's placebo-controlled treatment-effect (ΔLSM at W24 for masitinib 4.5 mg/kg/d parallel arm) versus overall study population's placebo-controlled treatment-effect (ΔLSM at W24 for masitinib 4.5 mg/kg/d parallel arm). […]
smiles,measurement,setting,value
"Cc1ccc(NC(=O)c2ccc(CN3CCN(C)CC3)cc2)cc1Nc1nc(-c2cccnc2)cs1 [masitinib, 4-(4-methylpiperazin-1-ylmethyl)-N-[4-methyl-3-(4-pyridin-3ylthiazol-2-ylamino)phenyl]benzamide]",δLSM (ADCS-ADL),MMSE [12-20],−0.4369
same,ΔLSM (ADCS-ADL),MMSE [25-21],+2.7435 points
same,ΔLSM (ADCS-ADL),"MMSE [25-21], listed as M4.5, 4.5 mg/kg/day",2.7435 points
same,δLSM (ADCS-ADL),MMSE [25-21],3.5738
same,ΔLSM (ADCS-ADL),MMSE ≥13,2.0496 points
same,δLSM (ADCS-ADL),MMSE ≥13,1.1204
same,ΔLSM (ADCS-ADL),MMSE ≥14,+2.4046 points
same,ΔLSM (ADCS-ADL),"MMSE ≥14, listed as M4.5, 4.5 mg/kg/day",2.4046 points
same,δLSM (ADCS-ADL),MMSE ≥14,1.3505
same,ΔLSM (ADCS-ADL),MMSE ≥15,2.2738 points
same,δLSM (ADCS-ADL),MMSE ≥15,1.3520
same,ΔLSM (ADCS-ADL),MMSE ≥16,2.5566 points
same,δLSM (ADCS-ADL),MMSE ≥16,1.6088
same,ΔLSM (ADCS-ADL),MMSE ≥17,2.2870 points
same,δLSM (ADCS-ADL),MMSE ≥17,1.0330
same,ΔLSM (ADCS-ADL),Overall Population,1.8190 points
same,δLSM (ADCS-ADL),Overall Population,1.0107
same,Δsub/Δoverall,"ratio of ΔLSM (ADCS-ADL) at W24, Baseline ADCS-ADL >39 vs overall study population",1.14
same,Δsub/Δoverall,"ratio of ΔLSM (ADCS-ADL) at W24, Baseline ADCS-ADL >47 vs overall study population",1.19
same,Δsub/Δoverall,"ratio of ΔLSM (ADCS-ADL) at W24, Baseline ADCS-ADL >55 vs overall study population",1.75
same,Δsub/Δoverall,"ratio of ΔLSM (ADCS-ADL) at W24, Baseline ADCS-ADL ≥32 vs overall study population",1.09
same,Δsub/Δoverall,"ratio of ΔLSM (ADCS-ADL) at W24, Baseline ADCS-ADL ≥35 vs overall study population",1.11
same,Δsub/Δoverall,"ratio of ΔLSM (ADCS-ADL) at W24, Baseline ADCS-ADL ≥38 vs overall study population",1.28
same,Δsub/Δoverall,"ratio of ΔLSM (ADCS-ADL) at W24, Baseline ADCS-ADL ≥41 vs overall study population",1.11
same,Δsub/Δoverall,"ratio of ΔLSM (ADCS-ADL) at W24, Baseline ADCS-ADL ≥50 vs overall study population",1.78
same,Δsub/Δoverall,"ratio of ΔLSM (ADCS-ADL) at W24, MMSE [20-12] vs overall study population",0.76
same,Δsub/Δoverall,"ratio of ΔLSM (ADCS-ADL) at W24, MMSE [25-21] vs overall study population",1.51
same,Δsub/Δoverall,"ratio of ΔLSM (ADCS-ADL) at W24, MMSE ≥13 vs overall study population",1.13
same,Δsub/Δoverall,"ratio of ΔLSM (ADCS-ADL) at W24, MMSE ≥14 vs overall study population",1.32
same,Δsub/Δoverall,"ratio of ΔLSM (ADCS-ADL) at W24, MMSE ≥15 vs overall study population",1.25
same,Δsub/Δoverall,"ratio of ΔLSM (ADCS-ADL) at W24, MMSE ≥16 vs overall study population",1.41
same,Δsub/Δoverall,"ratio of ΔLSM (ADCS-ADL) at W24, MMSE ≥17 vs overall study population",1.26
same,Δsub/Δoverall (percentage improvement),"ΔLSM (ADCS-ADL) at W24, Baseline ADCS-ADL >39 vs overall study population",(14%)
same,Δsub/Δoverall (percentage improvement),"ΔLSM (ADCS-ADL) at W24, Baseline ADCS-ADL >47 vs overall study population",(19%)
same,Δsub/Δoverall (percentage improvement),"ΔLSM (ADCS-ADL) at W24, Baseline ADCS-ADL >55 vs overall study population",75%
same,Δsub/Δoverall (percentage improvement),"ΔLSM (ADCS-ADL) at W24, Baseline ADCS-ADL >55 vs overall study population, listed as M4.5",(75%)
same,Δsub/Δoverall (percentage improvement),"ΔLSM (ADCS-ADL) at W24, Baseline ADCS-ADL ≥32 vs overall study population",(9%)
same,Δsub/Δoverall (percentage improvement),"ΔLSM (ADCS-ADL) at W24, Baseline ADCS-ADL ≥35 vs overall study population",(11%)
same,Δsub/Δoverall (percentage improvement),"ΔLSM (ADCS-ADL) at W24, Baseline ADCS-ADL ≥38 vs overall study population",(28%)
same,Δsub/Δoverall (percentage improvement),"ΔLSM (ADCS-ADL) at W24, Baseline ADCS-ADL ≥41 vs overall study population",(11%)
same,Δsub/Δoverall (percentage improvement),"ΔLSM (ADCS-ADL) at W24, Baseline ADCS-ADL ≥50 vs overall study population",78%
same,Δsub/Δoverall (percentage improvement),"ΔLSM (ADCS-ADL) at W24, Baseline ADCS-ADL ≥50 vs overall study population, listed as M4.5",(78%)
same,Δsub/Δoverall (percentage improvement),"ΔLSM (ADCS-ADL) at W24, MMSE [20-12] vs overall study population",(−24%)
same,Δsub/Δoverall (percentage improvement),"ΔLSM (ADCS-ADL) at W24, MMSE [25-21] vs overall study population",51%
same,Δsub/Δoverall (percentage improvement),"ΔLSM (ADCS-ADL) at W24, MMSE [25-21] vs overall study population, listed as M4.5",(51%)
same,Δsub/Δoverall (percentage improvement),"ΔLSM (ADCS-ADL) at W24, MMSE ≥13 vs overall study population",(13%)
same,Δsub/Δoverall (percentage improvement),"ΔLSM (ADCS-ADL) at W24, MMSE ≥14 vs overall study population",32%
same,Δsub/Δoverall (percentage improvement),"ΔLSM (ADCS-ADL) at W24, MMSE ≥14 vs overall study population, listed as M4.5",(32%)
same,Δsub/Δoverall (percentage improvement),"ΔLSM (ADCS-ADL) at W24, MMSE ≥15 vs overall study population",(25%)
same,Δsub/Δoverall (percentage improvement),"ΔLSM (ADCS-ADL) at W24, MMSE ≥16 vs overall study population",(41%)
same,Δsub/Δoverall (percentage improvement),"ΔLSM (ADCS-ADL) at W24, MMSE ≥17 vs overall study population",(26%)
same,improved benefit relative to complementary subpopulation,baseline ADAS-Cog ≤25 relative to >25,84%
same,improved benefit relative to complementary subpopulation,baseline ADCS-ADL >39 relative to ≤39,191%
same,improved benefit relative to complementary subpopulation,baseline ADCS-ADL >55 relative to ≤55,about 600%
same,improved benefit relative to complementary subpopulation,"baseline MMSE 25 to 21 relative to MMSE 20 to 12, printed as 'between 99% to 66%'",99%
